From ChEMBL document CHEMBL4033686, “Phenylbenzenesulfonates and -sulfonamides as 17β-hydroxysteroid dehydrogenase type 2 inhibitors: Synthesis and SAR-analysis” (Bioorg Med Chem Lett, 2017) come the findings set out here.

What all share (assay type): cell-based
For series [1], the target named is T1, 17-beta-hydroxysteroid dehydrogenase type 2 (Homo sapiens) (UniProt P37059).
T1 sequence (whole entry): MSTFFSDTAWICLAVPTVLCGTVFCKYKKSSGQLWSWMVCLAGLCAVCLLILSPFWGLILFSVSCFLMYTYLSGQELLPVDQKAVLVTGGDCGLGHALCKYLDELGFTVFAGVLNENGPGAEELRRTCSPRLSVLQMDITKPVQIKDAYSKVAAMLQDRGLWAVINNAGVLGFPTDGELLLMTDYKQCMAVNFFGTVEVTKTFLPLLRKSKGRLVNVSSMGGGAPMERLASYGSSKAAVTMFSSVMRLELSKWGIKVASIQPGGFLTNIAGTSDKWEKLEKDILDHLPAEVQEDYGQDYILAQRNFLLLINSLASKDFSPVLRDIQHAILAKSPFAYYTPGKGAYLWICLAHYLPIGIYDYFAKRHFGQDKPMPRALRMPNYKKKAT
As to the kind of experiment: Inhibition of recombinant human 17beta-HSD2 expressed in HEK293 cells assessed as residual activity at 20 uM using estradiol as substrate after 10 mins in presence of radiolabeled tracer substrate by scintillation counting method relative to control.

The target in series [2] is T2, 17-beta-hydroxysteroid dehydrogenase type 2 (Homo sapiens, UniProt P37059).
T2 sequence (P37059 whole entry): T1 sequence (whole entry)
Kind of series: Inhibition of recombinant human 17beta-HSD2 expressed in HEK293 cells using estradiol as substrate after 10 mins in presence of radiolabeled tracer substrate by scintillation counting method.

Series [3] concerns the target T3, 17-beta-hydroxysteroid dehydrogenase type 1 (Homo sapiens) (UniProt P14061).
T3 sequence (whole entry): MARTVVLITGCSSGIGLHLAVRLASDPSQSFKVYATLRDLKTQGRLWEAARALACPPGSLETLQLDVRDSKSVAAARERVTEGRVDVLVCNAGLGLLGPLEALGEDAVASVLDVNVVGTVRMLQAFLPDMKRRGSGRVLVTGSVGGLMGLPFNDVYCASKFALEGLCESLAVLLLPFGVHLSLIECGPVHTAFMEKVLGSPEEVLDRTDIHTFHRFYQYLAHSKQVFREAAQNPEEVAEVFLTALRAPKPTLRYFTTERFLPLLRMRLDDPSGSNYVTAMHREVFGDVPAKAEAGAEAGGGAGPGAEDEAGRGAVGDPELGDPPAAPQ
Kind of series: Inhibition of recombinant human 17beta-HSD1 expressed in HEK293 cells assessed as residual activity at 20 uM using estrone as substrate after 10 mins in presence of radiolabeled tracer substrate by scintillation counting method relative to control.

In series [4] the target is 11-beta-hydroxysteroid dehydrogenase 1 (Homo sapiens) (UniProt P28845). Kind of series: Inhibition of recombinant human 11beta-HSD1 expressed in HEK293 cells assessed as residual activity at 20 uM using cortisone as substrate after 10 mins in presence of radiolabeled tracer substrate by scintillation counting method relative to control.
For series [5], the target named is T4, 11beta-HSD2 (11-beta-hydroxysteroid dehydrogenase type 2) (Homo sapiens, UniProt P80365).
T4 sequence (P80365 whole entry): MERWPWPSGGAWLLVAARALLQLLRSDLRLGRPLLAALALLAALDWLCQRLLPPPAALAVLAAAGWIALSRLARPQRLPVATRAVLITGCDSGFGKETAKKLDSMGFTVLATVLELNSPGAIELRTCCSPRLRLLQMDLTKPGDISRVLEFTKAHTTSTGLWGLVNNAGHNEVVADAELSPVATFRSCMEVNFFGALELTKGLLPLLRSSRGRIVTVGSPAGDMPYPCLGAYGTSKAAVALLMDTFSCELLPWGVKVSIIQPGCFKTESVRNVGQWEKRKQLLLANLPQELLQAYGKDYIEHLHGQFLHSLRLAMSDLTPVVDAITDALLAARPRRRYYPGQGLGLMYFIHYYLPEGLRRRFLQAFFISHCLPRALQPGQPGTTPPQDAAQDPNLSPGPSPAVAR
Kind of series: Inhibition of recombinant human 11beta-HSD2 expressed in HEK293 cells assessed as residual activity at 20 uM using cortisol as substrate after 10 mins in presence of radiolabeled tracer substrate by scintillation counting method relative to control. The conditions noted are these: HEK293 cells expressing recombinant human 11beta-HSD2, probe cortisol, read-out: Activity.

Series [6] is filed under the species Homo sapiens. Kind of series: Selectivity index, ratio of compound effect for inhibition of recombinant human 17beta-HSD1 expressed in HEK293 cells assessed as residual activity to compound effect for inhibition of 17beta-HSD2 expressed in HEK293 cells assessed as residual activity.
The species entered for series [7] is Homo sapiens. As to the kind of experiment: Selectivity index, ratio of compound effect for inhibition of recombinant human 11beta-HSD1 expressed in HEK293 cells assessed as residual activity to compound effect for inhibition of 17beta-HSD2 expressed in HEK293 cells assessed as residual activity.
The species entered for series [8] is Homo sapiens. As to the kind of experiment: Selectivity index, ratio of compound effect for inhibition of recombinant human 11beta-HSD2 expressed in HEK293 cells assessed as residual activity to compound effect for inhibition of 17beta-HSD2 expressed in HEK293 cells assessed as residual activity.

11-beta-hydroxysteroid dehydrogenase 1 (Homo sapiens), sequence (P28845 whole entry, looked up): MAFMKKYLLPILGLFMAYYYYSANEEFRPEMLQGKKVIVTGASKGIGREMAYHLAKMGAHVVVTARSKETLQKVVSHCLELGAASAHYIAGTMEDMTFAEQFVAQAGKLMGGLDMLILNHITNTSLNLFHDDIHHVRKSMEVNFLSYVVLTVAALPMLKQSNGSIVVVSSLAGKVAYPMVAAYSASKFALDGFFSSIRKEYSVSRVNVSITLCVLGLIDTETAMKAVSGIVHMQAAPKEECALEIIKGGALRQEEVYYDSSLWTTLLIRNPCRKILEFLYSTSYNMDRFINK

For `Cc1ccc(O)c(NS(=O)(=O)c2ccc(C(C)(C)C)cc2)c1`, the Activity was determined as 13% in series [1], 38% in series [3] and 46% in series [4]. Also, in series [2], the IC50 – broadly, the point on the concentration scale where inhibition reaches its midpoint – amounted to 4.09 µM. The activity at 10 min, 20 µM in series [5] was 63%. Besides, the Selectivity Index turned out to be 2.9 in the series listed under Homo sapiens [6], 3.5 in the series filed under Homo sapiens [7] and 4.8 in the series listed under Homo sapiens [8].
On to `CC(C)(C)c1ccc(S(=O)(=O)Oc2ccc3ccccc3c2N)cc1`, for which the Activity in series [1] amounted to 43%.
Consider `CC(C)(C)c1ccc(S(=O)(=O)Nc2cc(Cl)ccc2N)cc1`, for which the Activity in series [1] is 22 to 28%; in series [3] it was 46%; in series [4], 28%. The 50% inhibitory concentration (IC50) in series [2] came out at 5.58 µM. The activity at 10 min, 20 µM in series [5] is 75%. Also, the Selectivity Index in the series filed under Homo sapiens [6] was 2.1; in the series listed under Homo sapiens [7] it was 1.3; in the series filed under Homo sapiens [8] it was 3.4.
Take `Cc1cc(C)c(O)c(NS(=O)(=O)c2ccc(C(C)(C)C)cc2)c1`: the Activity was determined as 18% in series [1], 19% in series [3] and 43% in series [4]. Besides, the concentration for half-maximal inhibition (IC50) in series [2] worked out at 5.19 µM. Moreover, in series [5], the activity at 10 min, 20 µM turned out to be 37%. Further, the results for the Selectivity Index in the series filed under Homo sapiens [6], in the series listed under Homo sapiens [7] and in the series filed under Homo sapiens [8] were 1.1, 2.4 and 2.1, respectively.
Regarding `CC(C)(C)c1ccc(S(=O)(=O)Oc2ccccc2N)cc1`, the Activity in series [1] amounted to 33%.
Consider `CC(C)(C)c1ccc(S(=O)(=O)Oc2ccc(-c3ccccc3)cc2N)cc1`, for which the Activity in series [1] stood at 86%.
Still for that read-out and setting: the figure for `Cc1ccc(OS(=O)(=O)c2ccc(C(C)(C)C)cc2)c(N)c1` is 37%.
In the case of `Cc1ccc(NS(=O)(=O)c2ccc(C(C)(C)C)cc2)c(O)c1`, the Activity was 22% in series [1], 35% in series [3] and 24% in series [4]. Further, the half-maximal inhibitory concentration (IC50) in series [2] was found to be 4.4 µM. Besides, the activity at 10 min, 20 µM in series [5] stood at 62%. The Selectivity Index in the series filed under Homo sapiens [6] worked out at 1.6; in the series listed under Homo sapiens [7], 1.1; in the series filed under Homo sapiens [8] it was 2.8.
On to `CC(C)(C)c1ccc(S(=O)(=O)Nc2ccc(F)cc2N)cc1`, for which the results for the Activity in series [1], in series [3] and in series [4] were 36%, 56% and 26%, respectively. The activity at 10 min, 20 µM in series [5] was 97%. For the same compound, the Selectivity Index was 1.6 in the series filed under Homo sapiens [6], 0.7 in the series listed under Homo sapiens [7] and 2.7 in the series filed under Homo sapiens [8].
For `CC(C)(C)c1ccc(S(=O)(=O)Nc2ccccc2N)cc1`, the Activity in series [1] came to 46%.
On to `CC(C)(C)c1ccc(S(=O)(=O)Nc2cc(Cl)c(Cl)cc2N)cc1`, for which the Activity in series [1] was determined as 11%; in series [3], 23%; in series [4], 74%. For the same compound, in series [2], the 50% inhibitory concentration (IC50) is 4.65 µM. Besides, the activity at 10 min, 20 µM in series [5] was 21%. Also, the Selectivity Index is 2.1 in the series filed under Homo sapiens [6], 6.7 in the series filed under Homo sapiens [7] and 1.9 in the series filed under Homo sapiens [8].
Take `Cc1cc(N)c(NS(=O)(=O)c2ccc(C(C)(C)C)cc2)cc1C`: in series [1], the Activity came out at 58%.
Still for that read-out and setting: in the case of `CC(C)(C)c1ccc(S(=O)(=O)Oc2ccc(Cl)cc2N)cc1` it was 44%; in that of `Cc1cc(C)c(OS(=O)(=O)c2ccc(C(C)(C)C)cc2)c(N)c1`, 49%.
Take `O=c1cc(-c2ccc(O)cc2)oc2cc(O)cc(O)c12`: the Activity in series [3] amounted to 11%.
As for `Cc1cc(S(=O)(=O)Nc2cccc(O)c2)c(C)cc1Cl`, in series [1], the Activity is 10%.
On to `CC(C)(C)c1ccc(S(=O)(=O)Nc2c(O)ccc3ccccc23)cc1`, for which the values for the Activity in series [1], in series [3] and in series [4] were 7%, 46% and 21%, respectively. Further, the 50% inhibitory concentration (IC50) in series [2] was 2.9 µM. Besides, in series [5], the activity at 10 min, 20 µM worked out at 21%. The Selectivity Index in the series listed under Homo sapiens [6] stood at 8.6; in the series listed under Homo sapiens [7], 3; in the series filed under Homo sapiens [8], 3.
As to `Cc1ccc(N)c(OS(=O)(=O)c2ccc(C(C)(C)C)cc2)c1`, the Activity in series [1] is 36%.
Consider `CC(C)(C)c1ccc(S(=O)(=O)Nc2cc(Cl)ccc2O)cc1`, for which the Activity worked out at 6% in series [1], 15% in series [3] and 35% in series [4]. For the same compound, the IC50 in series [2] stood at 0.8 µM. Besides, the activity at 10 min, 20 µM in series [5] is 7%. Besides, the Selectivity Index in the series listed under Homo sapiens [6] turned out to be 2.5; in the series listed under Homo sapiens [7], 5.8; in the series listed under Homo sapiens [8], 1.2.
Turning to `CC(C)(C)c1ccc(S(=O)(=O)Nc2cc(-c3ccccc3)ccc2O)cc1`, the Activity in series [1] is 2%; in series [3], 13%; in series [4], 62%. Besides, in series [2], the concentration for half-maximal inhibition (IC50) came to 1.25 µM. Moreover, the activity at 10 min, 20 µM in series [5] was 3%. Moreover, the figures for the Selectivity Index in the series filed under Homo sapiens [6], in the series filed under Homo sapiens [7] and in the series listed under Homo sapiens [8] were 6.5, 31 and 1.5, respectively.
For the compound `CC(C)(C)c1ccc(S(=O)(=O)Nc2ccccc2O)cc1`, the Activity is 5% in series [1], 41% in series [3] and 37% in series [4]. Further, in series [2], the IC50 is 1.23 µM. Also, in series [5], the activity at 10 min, 20 µM was determined as 83%. In addition, the Selectivity Index in the series listed under Homo sapiens [6] was 8.2; in the series filed under Homo sapiens [7], 7.4; in the series filed under Homo sapiens [8] it was 16.6.
Consider `CC(C)(C)c1ccc(S(=O)(=O)Nc2ccc(Cl)cc2N)cc1`, for which the Activity in series [1] worked out at 35%.
